Experimental data published in article PMC10804683, “Identification of the pyridoxal 5′‐phosphate allosteric site in human pyridox(am)ine 5′‐phosphate oxidase” (Protein Science : A Publication of the Protein Society, 2024).
Residue numbers refer to the chain shown, from its start.

Key:
human PNPO wild type = target: T1, human PNPO wild type (Homo sapiens, UniProt Q9NVS9)
T1 sequence (Q9NVS9 1-261): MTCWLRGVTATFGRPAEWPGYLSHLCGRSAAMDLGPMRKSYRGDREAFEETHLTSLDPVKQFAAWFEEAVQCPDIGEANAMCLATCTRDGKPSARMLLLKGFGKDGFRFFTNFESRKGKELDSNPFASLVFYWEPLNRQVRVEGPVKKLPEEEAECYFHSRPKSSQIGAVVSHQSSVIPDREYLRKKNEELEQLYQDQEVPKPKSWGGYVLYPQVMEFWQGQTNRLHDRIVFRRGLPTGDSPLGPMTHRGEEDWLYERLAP

human PNPO F48A variant = target: T2, human PNPO F48A variant (Homo sapiens, UniProt Q9NVS9, F48A); assay: PMP oxidation kinetics, F48A variant; conditions: 50 mM Tris–HCl pH 7.6, 37°C, 2 μM enzyme
T2 sequence (Q9NVS9 1-261 F48A): T1 sequence (Q9NVS9 1-261) with F48A

## Cc1ncc(COP(=O)(O)O)c(CN)c1O [PMP, pyridoxamine 5′‐phosphate]
Human PNPO wild type; 50 mM Tris–HCl pH 7.6, 37°C, 2 μM enzyme
  PMP oxidation kCAT: 0.135 ± 0.00283 s⁻¹
Human PNPO wild type; Tris–HCl pH 7.6, 37°C
  KM for PMP relative to KM for PNP: 25 fold
Human PNPO F48A variant
  PMP oxidation kCAT: 0.1785 ± 0.003 s⁻¹
